Publication doi:10.1101/2023.04.05.535784v2 (bioRxiv, 2023)
Positions of bridges follow the written chain, without caps; N, C: chain ends. Residues, ends and D or L forms follow the SMILES beside them.

Experiments:
[1] = test system: thrombus formation in the lung; conditions: mice, oral, three consecutive days
THP-1 cells = conditions: cited from earlier work

SMILES: CC(C)C[C@@H]1NC(=O)[C@@H]2CSSC[C@@H]3NC(=O)[C@H](Cc4c[nH]c5ccccc45)NC(=O)[C@H](C)NC(=O)CNC(=O)CNC(=O)[C@H](CO)NC(=O)[C@H](CCCCN)NC(=O)[C@@H](N)CSSC[C@@H]4NC(=O)[C@H](CSSC[C@H](NC(=O)[C@H](Cc5ccccc5)NC(=O)CNC(=O)[C@H](C(C)C)NC1=O)C(=O)N[C@@H](Cc1ccc(O)cc1)C(=O)NCC(=O)N[C@@H]([C@@H](C)O)C(=O)NCC(=O)N[C@H](C(=O)O)CSSC[C@H](NC(=O)[C@H](CC(N)=O)NC(=O)CNC4=O)C(=O)NCC(=O)N2)NC(=O)CNC(=O)[C@H](Cc1c[nH]cn1)NC(=O)[C@@H]1CCCN1C(=O)[C@H](CC(=O)O)NC(=O)[C@H](Cc1ccccc1)NC(=O)CNC3=O [ginsentide TP1] (H-CKSGGAWCGFDPHGCCGNCGCLVGFCYGTGC-OH; disulfide 1-16, 8-21, 15-26, 19-31)
- thrombus formation in the lung compared to control, 30 mg/kg [1]: significantly reduced
- increase in IL-6, IL-8, IL-10, and TNFα (THP-1 cells): no observable increase
